Test system: HEK293T cells
Assay: Effect of MMEJ and NHEJ inhibitors on CRISPR-Cas-induced double-strand break repair pathways and editing efficiency (amplicon sequencing, RIMA2)
Assay type: cell-based
Conditions: AZD7648 (1 µM) alone and in combination with Compound 1 at indicated concentrations, CRISPR/Cas9-mediated gene targeting, FIG. 4
Procedure: The effect of inhibitors of the MMEJ and NHEJ pathways on CRISPR-Cas-induced DNA double stranded break repair pathways was examined using the process shown schematically in FIG. 2A. Briefly, HEK293T cells were seeded into a 96-well plate 20 hours before transfection with plasmids encoding SpCas9 and a guide RNA (sgRNA) targeting CD34 in the presence and absence of single-stranded oligonucleotide donor (ssDNA). Two hours prior to transfection, the cells were submitted to inhibitor treatments, including the following conditions: a) 1 μM DNAPK inhibitor AZD7648 b) 1 μM DNAPK inhibitor AZD7648 in combination with compound 1, which was titrated in a 1:2 dilution series, ranging between 10 μM and 0.01 μM and corresponding DMSO control. Seventy hours post-transfection, cell confluence and eGFP-based transfection efficiencies were determined with the Incucyte SX5. Genomic DNA was extracted and editing outcome was analysed through deep-targeted amplicon sequencing and RIMA2 analysis (FIG. 2A) to determine knock-in frequencies as well as mutagenic DNA repair events, such as NHEJ and MMEJ outcomes (FIG. 2B).

| SMILES | DNA double strand break repair pathway used after CRISPR/Cas gene targeting |
| --- | --- |
| CN1CCN(CCOc2ccc(-c3nc4c(OC5(C)CC5)ncnc4n3Cc3ccccc3)c(Cl)c2)CC1 [Compound 1, 9-Benzyl-8-(2-chloro-4-(2-(4-methylpiperazin-1-yl)ethoxy)phenyl)-6-(1-methylcyclopropoxy)-9H-purine] | results in DNA double strand break repair by the more precise HDR pathway, and minimizes the contribution from the more error-prone MMEJ and NHEJ pathways |
| Cc1cc2ncnn2cc1Nc1ncc2c(n1)n(C1CCOCC1)c(=O)n2C [AZD7648] | results in DNA double strand break repair by the more precise HDR pathway, and minimizes the contribution from the more error-prone MMEJ and NHEJ pathways |

Reference: US20260242829A1, “Use of Inhibitors to Increase Efficiency of CRISPR/Cas Insertions” (ASTRAZENECA AB, priority 2023, published 2026)
